Experimental data reported in the NIST ThermoML archive (doi:10.1021/je0603022).

Experiments:
[1] = refractive index (Na D-line) (dimensionless); xn = mol fraction of the nth substance listed; details: 293.15 K, 101.3 kPa, Liquid, Standard Abbe refractometry
[2] = Liquid, Ebulliometric method (Recirculating still)
[3] = refractive index (Na D-line) (dimensionless); details: 101.33 kPa, Liquid, Standard Abbe refractometry

C=CCCCC [hex-1-ene] + c1ccsc1
Details | refractive index
[1], x2 = 0 | 1.3881

c1ccsc1 [thiophene] + CCCCCC
[1]
Details | refractive index
x1 = 0.027 | 1.3774
x1 = 0.05 | 1.3794
x1 = 0.08 | 1.3822
x1 = 0.096 | 1.3836
x1 = 0.194 | 1.3933
x1 = 0.292 | 1.4039
x1 = 0.394 | 1.4161
x1 = 0.494 | 1.4296
x1 = 0.588 | 1.4438
x1 = 0.697 | 1.4624
x1 = 0.797 | 1.4814
x1 = 0.897 | 1.5034
x1 = 0.919 | 1.5084
x1 = 0.949 | 1.5158
x1 = 0.974 | 1.5219
x1 = 1 | 1.5287

c1ccsc1 [thiophene]
Details | refractive index, 293.15 K | refractive index, 298.15 K | vapor or sublimation pressure, 323.15 K [kPa] | vapor or sublimation pressure, 333.15 K [kPa] | vapor or sublimation pressure, 338.15 K [kPa]
[2] | – | – | 31.21 | 45.44 | 54.27
[3] | 1.5287 | 1.5255 | – | – | –

Cc1ccccc1 [toluene]
Details | refractive index
[3], 298.15 K | 1.4939

CCCCCC [hexane]
Details | refractive index | vapor or sublimation pressure [kPa]
[2], 307.31 K | – | 29.67
[2], 311.36 K | – | 34.86
[2], 314.93 K | – | 40.02
[2], 316.81 K | – | 43.01
[2], 321.97 K | – | 52.02
[2], 323.15 K | – | 54.25
[2], 326.94 K | – | 62.11
[2], 331 K | – | 71.39
[2], 335.54 K | – | 83.09
[2], 338.15 K | – | 90.44
[2], 338.59 K | – | 91.73
[2], 342 K | – | 102.27
[3], 293.15 K | 1.3751 | –
[3], 298.15 K | 1.3724 | –

c1ccsc1 [thiophene] + C=CCCCC
[1]
Details | refractive index
x1 = 0.024 | 1.3903
x1 = 0.051 | 1.3926
x1 = 0.076 | 1.3949
x1 = 0.094 | 1.3966
x1 = 0.185 | 1.4055
x1 = 0.288 | 1.4163
x1 = 0.378 | 1.4266
x1 = 0.486 | 1.4402
x1 = 0.579 | 1.453
x1 = 0.683 | 1.4688
x1 = 0.788 | 1.4866
x1 = 0.89 | 1.5058
x1 = 0.91 | 1.5097
x1 = 0.948 | 1.5174
x1 = 0.974 | 1.523
x1 = 1 | 1.5287

CCCCCC [hexane] + c1ccsc1
Details | refractive index
[1], x2 = 0 | 1.3751

C=CCCCC [hex-1-ene]
Details | refractive index | vapor or sublimation pressure [kPa]
[2], 298.99 K | – | 25.68
[2], 302.85 K | – | 30.13
[2], 306.73 K | – | 35.19
[2], 310.9 K | – | 41.41
[2], 316.17 K | – | 50.46
[2], 320.92 K | – | 59.91
[2], 323.15 K | – | 64.82
[2], 325.41 K | – | 70.09
[2], 329.11 K | – | 79.46
[2], 330.99 K | – | 84.63
[2], 332.94 K | – | 90.24
[2], 333.15 K | – | 90.94
[2], 336.04 K | – | 99.73
[3], 293.15 K | 1.3881 | –
[3], 298.15 K | 1.3851 | –
